US10927123B2, “Modulators of the beta-3 adrenergic receptor useful for the treatment or prevention of disorders related thereto” (Arena Pharmaceuticals, Inc., priority 2016, dated 2021)

Biological target: Beta-3 Adrenergic Receptor (Homo sapiens (Human), UniProt P13945)
Experiment: HTRF cAMP antagonist assay (IC50 determination)
Assay type: cell-based
Settings: CHO-K1 cells stably expressing recombinant receptor; antagonism of isoproterenol at EC90; cAMP readout
Method in brief: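 In this functional readout, recombinant CHO-K1 cells received compound, then isoproterenol at its EC90. After 1 h at room temperature, cAMP levels were determined by HTRF using an on-plate standard curve, and IC50 values were fitted.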

Chain of Beta-3 Adrenergic Receptor (P13945 whole entry, species assumed): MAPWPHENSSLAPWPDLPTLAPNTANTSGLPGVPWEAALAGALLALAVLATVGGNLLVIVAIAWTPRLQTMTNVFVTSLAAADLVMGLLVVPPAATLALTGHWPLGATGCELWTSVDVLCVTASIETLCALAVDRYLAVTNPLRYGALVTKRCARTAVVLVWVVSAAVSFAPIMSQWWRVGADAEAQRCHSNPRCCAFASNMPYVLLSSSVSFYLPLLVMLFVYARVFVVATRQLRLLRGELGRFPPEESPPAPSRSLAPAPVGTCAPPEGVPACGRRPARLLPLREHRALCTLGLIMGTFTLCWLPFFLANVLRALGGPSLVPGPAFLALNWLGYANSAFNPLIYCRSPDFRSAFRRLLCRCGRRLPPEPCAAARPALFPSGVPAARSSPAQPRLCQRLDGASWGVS

Row | SMILES | IC50 [nM]
1 | CCOc1ccc(-c2ccc(C3(N)CC3)cc2)cc1S(=O)(=O)N1CCC2(CC1)C[C@@H](NC[C@H](O)COc1cccc(S(=O)(=O)C3CC3)c1)CO2 [Compound 254, (S)-1-((R)-8-(4′-(1-aminocyclopropyl)-4-ethoxybiphenyl-3-ylsulfonyl)-1-oxa-8-azaspiro[4.5]decan-3-ylamino)-3-(3-(cyclopropylsulfonyl)phenoxy)propan-2-ol] | 41.8
2 | O=S(=O)(c1ccc2ccccc2c1)N1CCC2(CC1)C[C@@H](NC[C@H](O)COc1cccc(S(=O)(=O)C3(CO)CC3)c1)CO2 [Compound 300, (S)-1-(3-(1-(hydroxymethyl)cyclopropylsulfonyl)phenoxy)-3-((R)-8-(naphthalen-2-ylsulfonyl)-1-oxa-8-azaspiro[4.5]decan-3-ylamino)propan-2-ol] | 20.4
3 | O=S(=O)(c1cnc2c(c1)OCCO2)N1CCC2(CC1)C[C@@H](NC[C@H](O)COc1cccc(S(=O)(=O)C3(CO)CC3)c1)CO2 [Compound 285, (S)-1-((R)-8-(2,3-dihydro-[1,4]dioxino[2,3-b]pyridin-7-ylsulfonyl)-1-oxa-8-azaspiro[4.5]decan-3-ylamino)-3-(3-(1-(hydroxymethyl)cyclopropylsulfonyl)phenoxy)propan-2-ol] | 303
4 | Cc1cc(-c2cccc(S(=O)(=O)N3CCC4(CC3)CC(NC[C@H](O)COc3cccc(S(C)(=O)=O)c3)CO4)c2)ccn1 (stereo partly drawn) [Compound 44, (2S)-1-(8-(3-(2-methylpyridin-4-yl)phenylsulfonyl)-1-oxa-8-azaspiro[4.5]decan-3-ylamino)-3-(3-(methylsulfonyl)phenoxy)propan-2-ol] | 21.5
5 | Cn1cc(S(=O)(=O)N2CCC3(CC2)C[C@@H](NC[C@H](O)COc2cccc(S(=O)(=O)C4(CO)CC4)c2)CO3)c(=O)c2ccccc21 [Compound 295, 3-((R)-3-((S)-2-hydroxy-3-(3-(1-(hydroxymethyl)cyclopropylsulfonyl)phenoxy)propylamino)-1-oxa-8-azaspiro[4.5]decan-8-ylsulfonyl)-1-methylquinolin-4(1H)-one] | 143
6 | O=S(=O)(c1cccc(OC[C@@H](O)CN[C@H]2COC3(CCN(S(=O)(=O)c4cnc5c(c4)OCCO5)CC3)C2)c1)C1CC1 [Compound 289, (S)-1-(3-(cyclopropylsulfonyl)phenoxy)-3-((R)-8-(2,3-dihydro-[1,4]dioxino[2,3-b]pyridin-7-ylsulfonyl)-1-oxa-8-azaspiro[4.5]decan-3-ylamino)propan-2-ol] | 65.8
7 | O=S(=O)(c1cccc(OC[C@@H](O)CN[C@H]2COC3(CCN(S(=O)(=O)c4cnc5ccc(F)cc5c4O)CC3)C2)c1)C1CC1 [Compound 325, 3-((R)-3-((S)-3-(3-(cyclopropylsulfonyl)phenoxy)-2-hydroxypropylamino)-1-oxa-8-azaspiro[4.5]decan-8-ylsulfonyl)-6-fluoroquinolin-4-ol] | 34
8 | CS(=O)(=O)c1cccc(OC[C@@H](O)CNC2COC3(CCN(S(=O)(=O)c4cccc(-c5cn[nH]c5)c4)CC3)C2)c1 (stereo partly drawn) [Compound 37, (2S)-1-(8-(3-(1H-pyrazol-4-yl)phenylsulfonyl)-1-oxa-8-azaspiro[4.5]decan-3-ylamino)-3-(3-(methylsulfonyl)phenoxy)propan-2-ol] | 9.37
9 | O=S(=O)(c1cnc(Cl)c(Br)c1)N1CCC2(CC1)C[C@@H](NC[C@H](O)COc1cccc(S(=O)(=O)C3(CO)CC3)c1)CO2 [Compound 221, (S)-1-((R)-8-(5-bromo-6-chloropyridin-3-ylsulfonyl)-1-oxa-8-azaspiro[4.5]decan-3-ylamino)-3-(3-(1-(hydroxymethyl)cyclopropylsulfonyl)phenoxy)propan-2-ol] | 20.6
10 | O=S(=O)(c1cccc(OC[C@@H](O)CN[C@H]2COC3(CCN(S(=O)(=O)c4cnc5cc(F)ccc5c4O)CC3)C2)c1)C1CC1 [Compound 329, 3-((R)-3-((S)-3-(3-(cyclopropylsulfonyl)phenoxy)-2-hydroxypropylamino)-1-oxa-8-azaspiro[4.5]decan-8-ylsulfonyl)-7-fluoroquinolin-4-ol] | 29.5
11 | C[C@H]1CN(C)c2cc(S(=O)(=O)N3CCC4(CC3)C[C@@H](NC[C@H](O)COc3cccc(S(=O)(=O)C5CC5)c3)CO4)cnc2O1 [Compound 274, (S)-1-(3-(cyclopropylsulfonyl)phenoxy)-3-((R)-8-((S)-1,3-dimethyl-2,3-dihydro-1H-pyrido[2,3-b][1,4]oxazin-7-ylsulfonyl)-1-oxa-8-azaspiro[4.5]decan-3-ylamino)propan-2-ol] | 38.4
12 | O=S(=O)(c1ccc2ncccc2c1)N1CCC2(CC1)C[C@@H](NC[C@H](O)COc1cccc(S(=O)(=O)C3(CO)CCC3)c1)CO2 [Compound 110, (S)-1-(3-(1-(hydroxymethyl)cyclobutylsulfonyl)phenoxy)-3-((R)-8-(quinolin-6-ylsulfonyl)-1-oxa-8-azaspiro[4.5]decan-3-ylamino)propan-2-ol] | 68.7

Second part, the compound after the results:

Row | IC50 [nM] | SMILES
13 | 37.1 | NCc1ccc(-c2cccc(S(=O)(=O)N3CCC4(CC3)C[C@@H](NC[C@H](O)COc3cccc(S(=O)(=O)CCO)c3)CO4)c2)cc1 [Compound 91, (S)-1-((R)-8-(4′-(aminomethyl)biphenyl-3-ylsulfonyl)-1-oxa-8-azaspiro[4.5]decan-3-ylamino)-3-(3-(2-hydroxyethylsulfonyl)phenoxy)propan-2-ol]
14 | 440 | CC(=O)NCCc1ccc(-c2cccc(S(=O)(=O)N3CCC4(CC3)C[C@@H](NC[C@H](O)COc3cccc(S(=O)(=O)C5(CO)CC5)c3)CO4)c2)cc1 [Compound 191, N-(2-(3′-((R)-3-((S)-2-hydroxy-3-(3-(1-(hydroxymethyl)cyclopropylsulfonyl)phenoxy)propylamino)-1-oxa-8-azaspiro[4.5]decan-8-ylsulfonyl)biphenyl-4-yl)ethyl)acetamide]
15 | 504 | Cc1c(-c2ccc(C3(N)CC3)cc2)cccc1S(=O)(=O)N1CCC2(CC1)C[C@@H](NC[C@H](O)COc1cccc(S(=O)(=O)C3(CO)CC3)c1)CO2 [Compound 204, (S)-1-((R)-8-(4′-(1-aminocyclopropyl)-2-methylbiphenyl-3-ylsulfonyl)-1-oxa-8-azaspiro[4.5]decan-3-ylamino)-3-(3-(1-(hydroxymethyl)cyclopropylsulfonyl)phenoxy)propan-2-ol]
16 | 27.9 | COc1ccc(S(=O)(=O)N2CCC3(CC2)C[C@@H](NC[C@H](O)COc2cccc(S(=O)(=O)C4CC4)c2)CO3)cc1-c1ccc(C2(N)CC2)cc1 [Compound 255, (S)-1-((R)-8-(4′-(1-aminocyclopropyl)-6-methoxybiphenyl-3-ylsulfonyl)-1-oxa-8-azaspiro[4.5]decan-3-ylamino)-3-(3-(cyclopropylsulfonyl)phenoxy)propan-2-ol]
17 | 42.2 | CS(=O)(=O)c1cccc(OC[C@@H](O)CNC2COC3(CCN(S(=O)(=O)c4cccc(C(F)(F)F)c4)CC3)C2)c1 (stereo partly drawn) [Compound 50, (2S)-1-(3-(methylsulfonyl)phenoxy)-3-(8-(3-(trifluoromethyl)phenylsulfonyl)-1-oxa-8-azaspiro[4.5]decan-3-ylamino)propan-2-ol]
18 | 22.8 | COc1ccc(S(=O)(=O)N2CCC3(CC2)C[C@H](NC[C@H](O)COc2cccc(S(=O)(=O)C(F)(F)CO)c2)CO3)cc1-c1ccc(CN)cc1 [Compound 238, (S)-1-((S)-8-(4′-(aminomethyl)-6-methoxybiphenyl-3-ylsulfonyl)-1-oxa-8-azaspiro[4.5]decan-3-ylamino)-3-(3-(1,1-difluoro-2-hydroxyethylsulfonyl)phenoxy)propan-2-ol]
19 | 19.6 | CCOc1ccc(-c2ccc(CN)cc2)cc1S(=O)(=O)N1CCC2(CC1)C[C@H](NC[C@H](O)COc1cccc(S(C)(=O)=O)c1)CO2 [Compound 231, (S)-1-((S)-8-(4′-(aminomethyl)-4-ethoxybiphenyl-3-ylsulfonyl)-1-oxa-8-azaspiro[4.5]decan-3-ylamino)-3-(3-(methylsulfonyl)phenoxy)propan-2-ol]
20 | 287 | O=S(=O)(CCO)c1cccc(OC[C@@H](O)CN[C@H]2COC3(CCN(S(=O)(=O)c4ccc(-c5cccnc5)cc4)CC3)C2)c1 [Compound 99, (S)-1-(3-(2-hydroxyethylsulfonyl)phenoxy)-3-((R)-8-(4-(pyridin-3-yl)phenylsulfonyl)-1-oxa-8-azaspiro[4.5]decan-3-ylamino)propan-2-ol]
21 | 206 | NCCCNCc1ccc(-c2cccc(S(=O)(=O)N3CCC4(CC3)C[C@@H](NC[C@H](O)COc3cccc(S(=O)(=O)C5(CO)CC5)c3)CO4)c2)cc1 [Compound 271, (S)-1-((R)-8-(4′-((3-aminopropylamino)methyl)biphenyl-3-ylsulfonyl)-1-oxa-8-azaspiro[4.5]decan-3-ylamino)-3-(3-(1-(hydroxymethyl)cyclopropylsulfonyl)phenoxy)propan-2-ol]
